These results are taken from patent publication US20250064941A1, “SIGLEC LIGANDS, CONJUGATES, AND METHODS OF USE THEREOF” (Osprey Biopharmaceuticals, Inc., priority 2023, published 2025).

Some results are limits rather than exact numbers.

The target of test [1] is T1, mouse Siglec-2-Fc-Avi (CD22) (Mus musculus, UniProt P35329).
T1 construct: made in house
T1 sequence (P35329 22-708 limits assumed): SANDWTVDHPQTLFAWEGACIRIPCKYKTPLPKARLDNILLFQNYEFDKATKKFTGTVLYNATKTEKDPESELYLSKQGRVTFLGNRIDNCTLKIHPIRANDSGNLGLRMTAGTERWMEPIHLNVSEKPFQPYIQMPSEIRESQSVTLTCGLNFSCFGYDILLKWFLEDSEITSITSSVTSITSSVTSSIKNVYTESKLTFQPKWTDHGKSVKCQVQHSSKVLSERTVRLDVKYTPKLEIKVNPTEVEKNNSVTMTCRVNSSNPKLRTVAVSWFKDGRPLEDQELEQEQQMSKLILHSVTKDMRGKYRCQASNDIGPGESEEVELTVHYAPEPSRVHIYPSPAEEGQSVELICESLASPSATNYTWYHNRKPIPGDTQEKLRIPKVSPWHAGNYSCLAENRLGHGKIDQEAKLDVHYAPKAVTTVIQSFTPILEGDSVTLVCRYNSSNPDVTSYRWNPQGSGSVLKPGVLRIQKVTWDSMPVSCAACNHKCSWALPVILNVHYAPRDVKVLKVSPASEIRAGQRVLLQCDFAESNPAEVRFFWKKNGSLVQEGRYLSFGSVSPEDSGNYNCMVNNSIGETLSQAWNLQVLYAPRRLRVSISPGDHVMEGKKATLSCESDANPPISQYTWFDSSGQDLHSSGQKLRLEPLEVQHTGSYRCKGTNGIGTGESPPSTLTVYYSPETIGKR
Kind of test: SPR binding affinity to mouse CD22. To be noted: steady-state analysis. Summed up:
(§1)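 SialoExo pretreatment, 4 h 37° C.; biotinylated CD22 on SA chip, Biacore 8K. Buffer 10 mM HEPES, 150 mM NaCl, 0.05% Tween-20, pH 7.5, 1% DMSO. Dissociation 120 s; solvent-corrected; steady-state KD.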
Background: In SPR one partner is held on a chip, and binding of the other changes the refractive index at the surface.

Test [2] has as its target T2, human Siglec-2/CD22 protein (Homo sapiens, UniProt P20273).
T2 construct: purchased Acro Biosystems SI2-H82E3
T2 sequence (P20273 20-847): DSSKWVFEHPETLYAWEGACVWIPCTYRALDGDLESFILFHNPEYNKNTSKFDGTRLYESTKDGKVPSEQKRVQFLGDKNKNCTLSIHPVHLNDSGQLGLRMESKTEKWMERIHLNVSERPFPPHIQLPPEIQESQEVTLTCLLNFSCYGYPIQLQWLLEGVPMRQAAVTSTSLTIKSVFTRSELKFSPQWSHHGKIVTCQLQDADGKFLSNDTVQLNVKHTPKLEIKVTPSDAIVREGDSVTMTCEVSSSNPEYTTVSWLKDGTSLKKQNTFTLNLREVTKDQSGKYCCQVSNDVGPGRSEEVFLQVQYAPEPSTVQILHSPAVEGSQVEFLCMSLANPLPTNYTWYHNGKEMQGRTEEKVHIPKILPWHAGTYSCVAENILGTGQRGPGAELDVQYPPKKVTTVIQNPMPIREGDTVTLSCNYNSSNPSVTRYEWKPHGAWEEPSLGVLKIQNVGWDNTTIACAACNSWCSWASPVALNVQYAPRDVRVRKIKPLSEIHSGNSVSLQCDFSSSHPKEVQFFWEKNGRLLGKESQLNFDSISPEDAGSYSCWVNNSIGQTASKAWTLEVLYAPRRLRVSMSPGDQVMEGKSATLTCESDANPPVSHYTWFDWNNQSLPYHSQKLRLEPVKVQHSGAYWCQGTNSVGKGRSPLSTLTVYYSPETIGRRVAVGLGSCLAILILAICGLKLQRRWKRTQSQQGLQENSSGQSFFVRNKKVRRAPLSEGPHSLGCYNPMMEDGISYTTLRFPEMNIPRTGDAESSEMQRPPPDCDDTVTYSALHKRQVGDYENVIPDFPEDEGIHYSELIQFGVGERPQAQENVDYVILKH
Description: SPR binding affinity to human CD22. The note with it: steady-state analysis. In a few lines: as §1

In another test the target is cynomolgus Siglec-2/CD22 (Macaca fascicularis, UniProt A0A2K5WCZ6). Kind of test: biochemical. It is filed as binding. To be noted: SPR, steady-state analysis; read-out: Affinity cyno CD22. Summed up: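 SPR with desialylated (SialoExo, 4 h, 37° C.) cynomolgus CD22 amine-coupled to a CM5 chip. Running buffer 10 mM HEPES, 150 mM NaCl, 0.05% Tween-20, pH 7.5, 1% DMSO, with solvent correction; 120 s dissociation. Affinities from steady-state analysis.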
Sequence of cynomolgus Siglec-2/CD22 (A0A2K5WCZ6 entry or part of it): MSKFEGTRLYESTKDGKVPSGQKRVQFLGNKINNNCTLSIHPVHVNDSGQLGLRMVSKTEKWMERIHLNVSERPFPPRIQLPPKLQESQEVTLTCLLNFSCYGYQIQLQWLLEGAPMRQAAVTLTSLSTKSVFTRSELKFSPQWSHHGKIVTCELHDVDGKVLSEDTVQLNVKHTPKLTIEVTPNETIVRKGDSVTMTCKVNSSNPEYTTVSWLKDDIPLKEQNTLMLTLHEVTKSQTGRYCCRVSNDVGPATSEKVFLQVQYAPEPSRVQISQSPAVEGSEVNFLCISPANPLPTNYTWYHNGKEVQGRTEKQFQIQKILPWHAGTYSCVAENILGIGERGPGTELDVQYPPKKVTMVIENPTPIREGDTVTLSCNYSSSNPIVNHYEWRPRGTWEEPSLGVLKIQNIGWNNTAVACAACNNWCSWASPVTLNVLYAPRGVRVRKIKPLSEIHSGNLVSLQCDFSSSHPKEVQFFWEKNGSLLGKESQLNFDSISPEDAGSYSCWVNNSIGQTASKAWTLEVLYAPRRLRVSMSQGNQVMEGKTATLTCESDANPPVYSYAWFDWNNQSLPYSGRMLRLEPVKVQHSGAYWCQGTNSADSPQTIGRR

With `C#CCOCCOCCNc1c(NCCCCCCO[C@]2(C(=O)O)C[C@H](O)[C@@H](NC(=O)CO)[C@H]([C@H](O)[C@H](O)CNC(=O)c3cccc(Cl)c3)O2)c(=O)c1=O` [Compound 227, (2R,4S,5R,6R)-6-((1R,2R)-3-(3-chlorobenzamido)-1,2-dihydroxypropyl)-2-((6-((3,4-dioxo-2-((2-(2-(prop-2-yn-1-yloxy)ethoxy)ethyl)amino)cyclobut-1-en-1-yl)amino)hexyl)oxy)-4-hydroxy-5-(2-hydroxyacetamido)tetrahydro-2H-pyran-2-carboxylic acid], the Kd in test [1] is 1 to 10 µM; in test [2] it was less than 1 µM; on cynomolgus Siglec-2/CD22, less than 1 µM.
In the case of `C#CCOCCOCCO[C@]1(C(=O)O)C[C@H](O)[C@@H](NC(=O)CO)[C@H]([C@H](O)[C@H](O)CNC(=O)Cc2cc(F)cc(C(F)(F)F)c2)O1` [Compound 133, (2R,4S,5R,6R)-6-((1R,2R)-3-(2-(3-fluoro-5-(trifluoromethyl)phenyl)acetamido)-1,2-dihydroxypropyl)-4-hydroxy-5-(2-hydroxyacetamido)-2-(2-(2-(prop-2-yn-1-yloxy)ethoxy)ethoxy)tetrahydro-2H-pyran-2-carboxylic acid], the results for the Kd (in test [1]; in test [2]; at cynomolgus Siglec-2/CD22) were more than 10 µM, less than 1 µM and less than 1 µM, respectively.
As to `CC(=O)NCCOCCOCCOCCOCCNC(=O)CCCCCCO[C@]1(C(=O)O)C[C@H](O)[C@@H](NC(=O)CO)[C@H]([C@H](O)[C@H](O)CNC(=O)Cc2ccc(Cl)cc2)O1` [Compound 264, (2R,4S,5R,6R)-6-((1R,2R)-3-(2-(4-chlorophenyl)acetamido)-1,2-dihydroxypropyl)-2-((2,19-dioxo-6,9,12,15-tetraoxa-3,18-diazapentacosan-25-yl)oxy)-4-hydroxy-5-(2-hydroxyacetamido) tetrahydro-2H-pyran-2-carboxylic acid], the Kd is 1 to 10 µM in test [1], less than 1 µM in test [2] and less than 1 µM at cynomolgus Siglec-2/CD22.
As to `CC(=O)NCCOCCOCCOCCOCCNC(=O)CCCCCCO[C@]1(C(=O)O)C[C@H](O)[C@@H](NC(=O)CO)[C@H]([C@H](O)[C@H](O)CNC(=O)Cc2ccc(C(F)F)cc2)O1` [Cpd. 257, (2R,4S,5R,6R)-6-((1R,2R)-3-(2-(4-(difluoromethyl)phenyl)acetamido)-1,2-dihydroxypropyl)-2-((2,19-dioxo-6,9,12,15-tetraoxa-3,18-diazapentacosan-25-yl)oxy)-4-hydroxy-5-(2-hydroxyacetamido)tetrahydro-2H-pyran-2-carboxylic acid], the Kd in test [1] is 1 to 10 µM; in test [2] it was less than 1 µM; on cynomolgus Siglec-2/CD22, less than 1 µM.
Take `C#CCOCCOCCO[C@]1(C(=O)O)C[C@H](O)[C@@H](NC(=O)CO)[C@H]([C@H](O)[C@H](O)CNC(=O)Cc2ccc(Cl)c(O)c2)O1` [Compound 134, (2R,4S,5R,6R)-6-((1R,2R)-3-(2-(4-chloro-3-hydroxyphenyl)acetamido)-1,2-dihydroxypropyl)-4-hydroxy-5-(2-hydroxyacetamido)-2-(2-(2-(prop-2-yn-1-yloxy)ethoxy)ethoxy)tetrahydro-2H-pyran-2-carboxylic acid]: the figures for the Kd (in test [1]; in test [2]; at cynomolgus Siglec-2/CD22) were 1 to 10 µM, less than 1 µM and less than 1 µM, respectively.
Take `C#CCOCCCCCCO[C@]1(C(=O)O)C[C@H](O)[C@@H](NC(=O)CO)[C@H]([C@H](O)[C@H](O)CNC(=O)Cc2ccc(Cl)c(C(F)(F)F)c2)O1` [Compound 127, (2R,4S,5R,6R)-6-((1R,2R)-3-(2-(4-chloro-3-(trifluoromethyl)phenyl)acetamido)-1,2-dihydroxypropyl)-4-hydroxy-5-(2-hydroxyacetamido)-2-((6-(prop-2-yn-1-yloxy)hexyl)oxy)tetrahydro-2H-pyran-2-carboxylic acid]: the Kd in test [1] is 1 to 10 µM; in test [2], less than 1 µM; on cynomolgus Siglec-2/CD22, less than 1 µM.
Take `C#CCOCCOCCO[C@]1(C(=O)O)C[C@H](O)[C@@H](NC(=O)NCC(F)(F)F)[C@H]([C@H](O)[C@H](O)CNC(=O)Cc2ccc(-c3ccc(O)cc3)cc2)O1` [Compound 199, (2R,4S,5R,6R)-6-((1R,2R)-1,2-dihydroxy-3-(2-(4′-hydroxy-[1,1′-biphenyl]-4-yl)acetamido)propyl)-4-hydroxy-2-(2-(2-(prop-2-yn-1-yloxy)ethoxy)ethoxy)-5-(3-(2,2,2-trifluoroethyl)ureido)tetrahydro-2H-pyran-2-carboxylic acid]: the Kd (in test [1]; in test [2]; at cynomolgus Siglec-2/CD22) was more than 10 µM each time.
In the case of `C#CCOCCCCCCO[C@]1(C(=O)O)C[C@H](O)[C@@H](NC(=O)C(F)(F)F)[C@H]([C@H](O)[C@H](O)CNC(=O)Cc2ccc(Cl)cc2)O1` [Compound 90, (2R,4S,5R,6R)-6-((1R,2R)-3-(2-(4-chlorophenyl)acetamido)-1,2-dihydroxypropyl)-4-hydroxy-2-((6-(prop-2-yn-1-yloxy)hexyl)oxy)-5-(2,2,2-trifluoroacetamido)tetrahydro-2H-pyran-2-carboxylic acid], the Kd in test [1] was 1 to 10 µM; in test [2] it was less than 1 µM; on cynomolgus Siglec-2/CD22, less than 1 µM.
With `C#CCCOc1ccc(CO[C@]2(C(=O)O)C[C@H](O)[C@@H](NC(=O)NC)[C@H]([C@H](O)[C@H](O)CNC(=O)Cc3ccc(-c4ccc(O)cc4)cc3)O2)cc1` [Compound 61, (2R,4S,5R,6R)-2-((4-(but-3-yn-1-yloxy)benzyl)oxy)-6-((1R,2R)-1,2-dihydroxy-3-(2-(4′-hydroxy-[1,1′-biphenyl]-4-yl)acetamido)propyl)-4-hydroxy-5-(3-methylureido)tetrahydro-2H-pyran-2-carboxylic acid], the Kd (in test [1]; in test [2]; on cynomolgus Siglec-2/CD22) was less than 1 µM throughout.
For the compound `C#CCOCCNC(=O)CCCCCCO[C@]1(C(=O)O)C[C@H](O)[C@@H](NC(=O)CO)[C@H]([C@H](O)[C@H](O)CNC(=O)Cc2ccc(Cl)c(F)c2)O1` [Cpd. 214, (2R,4S,5R,6R)-6-((1R,2R)-3-(2-(4-chloro-3-fluorophenyl)acetamido)-1,2-dihydroxypropyl)-4-hydroxy-5-(2-hydroxyacetamido)-2-((7-oxo-7-((2-(prop-2-yn-1-yloxy)ethyl)amino)heptyl)oxy)tetrahydro-2H-pyran-2-carboxylic acid], the Kd (in test [1]; in test [2]; at cynomolgus Siglec-2/CD22) was less than 1 µM throughout.
With `CC(=O)NCCOCCOCCOCCOCCNC(=O)CCCCCO[C@]1(C(=O)O)C[C@H](O)[C@@H](NC(=O)CO)[C@H]([C@H](O)[C@H](O)CNC(=O)Cc2ccc(Cl)cc2)O1` [Compound 228, (2R,4S,5R,6R)-6-((1R,2R)-3-(2-(4-chlorophenyl)acetamido)-1,2-dihydroxypropyl)-2-((2,19-dioxo-6,9,12,15-tetraoxa-3,18-diazatetracosan-24-yl)oxy)-4-hydroxy-5-(2-hydroxyacetamido)tetrahydro-2H-pyran-2-carboxylic acid], the Kd is 1 to 10 µM in test [1], 1 to 10 µM in test [2] and less than 1 µM on cynomolgus Siglec-2/CD22.
